“Also recorded” adds a separate entry of the source. Square brackets hold non-standard residues; d marks the D form. Ends that are not written are not given here. Peptide text beside a SMILES is read from it. pGlu = O=C1CC[C@@H](C(=O)O)N1
How the values were obtained:
[1] = tested on: SK-N-AS cells (human neuroblastoma); experiment: Free intracellular Ca2+ concentration in SK-N-AS cells (fluo-3 AM, confocal microscopy); type: cell-based
Description: In these experiments the variation in free intracellular calcium [Ca^2+]i concentration was measured in SK-N-AS cells (human neuroblastoma, ATCC No. CRL-2137) after addition of 1 μmolar of peptides SEQ ID NO 1 or SEQ ID NO 8, or of 1 μmolar captopril. Cells were kept in DMEM (Dulbecco Modified Medium), supplemented with 10% fetal bovine serum (FBS) and 1% non-essential amino acids, at 5% CO2 atmosphere, at 37° C., and 95% relative humidity. Cells were treated with trypsin, and replicated at adequate cell concentrations.
Measurements of variation in the concentration of free [Ca^2+]i were performed with a confocal microscope LSM 510 (Zeiss, Jena, Germany), as described by Martins et al., (Martins et al., Neuronal differentiation of P19 embryonal carcinoma cells modulates kinin B2 receptor gene expression and function. J. Biol. Chem. 280: 19576-19586, 2005). Approximately 5×10^4 SK-N-AS cells were plated on 60 mm plates 24 hours prior to measurement, and then treated with 4 μM fluo-3 AM (Invitrogen Corporation) in 0.5% DMSO and 0.1% non-ionic surfactant pluronic acid F-127 for 30 minutes at 37° C. Cells were washed with DMEM containing 10% FBS, and transferred to defined medium (5 μg/ml insulin, 30 μg/ml transferrin, 20 μM ethanolamine, 30 nM sodium selenite, 1 μM sodium pyruvate, 1% non-essential amino acids, 1 mM glutamine, 100 μg/ml penicillin, 100 μg/ml streptomycin, 10 mM HEPES pH 7.4 in DMEM). The fluorescent fluo-3 AM was excited at 488 nm, and the fluorescence measured at 526 nm.
Variations in the [Ca^2+]i were measured in non-stimulated cells, and in cells stimulated with peptides SEQ ID NO 1 or SEQ ID NO 8, or with captopril (Sigma Aldrich). Increase of fluorescence was monitored for 2 minutes, and images were acquired in 256×256 pixels every second. At the end of each experiment, 5 μM ionophore (4-Br-A23187) were added, followed by 10 mM EGTA, or 20 μM digitonin to determine maximum and minimum fluorescence, Fmax and Fmin respectively, as described by Grynkiewicz et al., (1985).
Intracellular calcium concentrations [Ca^2+]i, related to fluorescence (F) values obtained after addition of peptides SEQ ID NO 1 or SEQ ID NO 8, were calculated with the equation: [Ca^2+]=Kd(F−Fmin)/(Fmax−F), assuming Kd=450 nM for fluo-3 AM (Hallett et al., 1990).

[2] = Determination of Z-pro metabolites in mice urine; type: in vivo, mouse; conditions: for Metabolites in the urine: mice, 0.91 mg/Kg intraperitoneally, urine collected after 24 hours, mass spectrometry
Description: In vivo hydrolysis of peptides SEQ ID NO 1, SEQ ID NO 4, SEQ ID NO 5, SEQ ID NO 8, and SEQ ID NO 15 was investigated in Swiss male mice weighing approximately 22-25 g, which had free access to food and water, and were kept under a light-dark cycle of 12 hour periods.
Groups of 10 mice were treated intraperitoneally with 0.91 mg/Kg of each proline rich oligopeptide per animal, diluted in 200 μl saline. Treated and control animals (not treated) were kept in metabolic cages, and their urine was collected after 24 hours. The urine was pre-purified in a reverse phase Sep-Pak C18 micro column (Waters), which had been previously equilibrated with solvent A (H2O/0.1% TFA). Samples were eluted with 60% solvent B (90% acetonitrile/10% solvent A), lyophilized, and resuspended in 1 ml deionized water to be centrifuged at 14.000 rpm for 5 minutes. The supernatant (500 μl) was fractionated in an analytic HPLC system. The gradient was 5-65% solvent B for 30 minutes, using a flow rate of 1 ml/min and monitoring at 214 nm. Fractions were lyophilized and ressuspended in acetonitrile/H2O (1:1), containing 0.2% formic acid, and were analyzed by mass spectrometry (Q-TOF-Pro). Urine fractions from control and treated animals were compared to determine the presence of metabolites originated from the peptides being tested.

[3] = molecular target: T1, argininosuccinate synthase (AsS) (Mus musculus, UniProt P16460); experiment: Potentiation of argininosuccinate synthase activity (phosphate generated from ATP); type: biochemical; conditions: AsS activated by SEQ ID NO 8
T1 construct: Cytosolic and membrane fractions of the renal extract (100 mg/ml total protein) were applied to separate columns; from tissue; host or cells: Balb-c mouse kidney, cytosolic and membrane fractions
T1 sequence (P16460 1-412): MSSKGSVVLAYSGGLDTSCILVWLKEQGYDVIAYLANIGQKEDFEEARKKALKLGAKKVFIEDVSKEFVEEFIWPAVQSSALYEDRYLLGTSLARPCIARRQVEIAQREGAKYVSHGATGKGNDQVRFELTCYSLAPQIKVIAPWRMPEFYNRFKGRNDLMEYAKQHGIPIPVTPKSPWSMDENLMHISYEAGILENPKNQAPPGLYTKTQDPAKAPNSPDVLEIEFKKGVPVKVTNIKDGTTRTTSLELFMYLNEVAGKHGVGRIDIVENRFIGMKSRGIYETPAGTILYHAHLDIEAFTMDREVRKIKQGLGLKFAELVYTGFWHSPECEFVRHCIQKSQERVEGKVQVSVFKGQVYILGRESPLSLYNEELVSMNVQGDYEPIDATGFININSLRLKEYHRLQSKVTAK
Description: Activation of the AsS enzyme of Example 3 by peptide SEQ ID NO 8 was quantified in vitro according to Hao et al. [Hao G., Xie L., Gross S. S. Argininosuccinate synthetase is reversibly inactivated by S-nitrosylation in vitro and in vivo. J. Biol. Chem., 279:36192-36200 (2004)]. This method is based on measuring the quantity of phosphate generated from ATP, when pyrophosphatase is added to the reaction medium. Since the activity of the pyrophosphatase relates directly to the enzymatic activity of the AsS, the quantity of generated pyrophosphate is a direct measurement of the AsS activity.
The AsS enzyme (1 μg) was added to the reaction mixture containing 20 mM Tris-HCl, pH 7.8, 2 mM ATP, 2 mM citrulline, 2 mM aspartate, 6 mM MgCl2, 20 mM KCl, and 0.2 units of pyrophosphatase in a final volume of 200 μL in 96 well microplates. Increasing quantities of the SEQ ID NO 8 peptide (0.5, 1 to 8 μM) were added, and samples were incubated at 37° C. for 60 minutes. The reaction was interrupted by the addition of 200 μL of ammonium molybdate buffer (10 mM ascorbic acid, 2.5 mM ammonium molybdate, 2% sulphuric acid). Resulting phosphate was determined in the samples by spectrophotometry (absorbance at 650 nm), using a standard curve obtained with inorganic phosphate.
The production rate of phosphate (enzymatic activity of the AsS) was activated up to approximately 2.5 fold upon addition of 2 μM peptide SEQ ID NO 8. […] Accessibility of endothelial and inducible nitric oxide synthase to the intracellular citrulline-arginine regeneration pathway. Biochem. Pharmacol. 69: 97-104, 2005].

[4] = Bioavailability / tissue distribution of 125I-labelled peptide in mice; type: in vivo, mouse
From the text: Peptide SEQ ID NO 8 was labeled with ^125I according to Greenwood and Hunter (Greenwood F C and Hunter W M. The preparation of ^125I-labelled human growth hormone of high specific radioactivity. J. Biochem., 89:114-123, 1963), with modifications [Biscayart P L, Paladini A C, Vita N, Roguin L P. Preparation of ^125I-labeled human growth hormone of high quality binding properties endowed with long-term stability. J. Immunoassay, 10, 37-56, 1989; Ribela et al., Protein Exp. Purif., 18(2):115-200, 2000). Under constant shaking, 5 μg of the synthetic SEQ ID NO 8 peptide in PBS were mixed with 1 mCi of ^125I, and 0.8 μg of chloramines T. After 5 minutes, 1 μg metabisulfite and 200 μg potassium iodine were added to finalize the labeling reaction. Purification of the labeled product was performed by reverse-phase chromatography in a disposable micro-column (Sep-Pak C18, Waters) as described by Christophe et al. [Christophe et al., The synthetic peptide trp-lys-tyr-met-val-met-NH2 specifically activates neutrophils through FPRL1/lipoxin A4 receptors and is an agonist for the orphan monocyte-expressed chemoattractant receptor FPRL2. J. Biol. Chem. 276: 21585-21593, 2001]. The reaction product was diluted in three volumes of destined water, and applied to the column that had been pre-treated with destined water. Potassium iodine (5 mM, 20 mL) was added, and the column was washed twice with 20 mL distilled water. The labeled peptide was eluted with 2 mL 100% methanol, and 5 μl aliquots were analyzed in the gamma radiation counter from Nuclear Chicago. […]
The animals were anesthetized after 1, 5, 15, 30, 45, 60, 120 and 180 min after injection, and killed by cervical dislocation, and organs (heart, spleen, liver, kidney, intestines, stomach, thyroid, testicles, and brain) were removed, flushed free of blood with 0.9% saline, and weighed. The radioactivity of each organ was determined in a gamma counter. […]
The dose percentage present in each organ was determined, using an administered dose standard. Radioactivity values were registered, given in dose percentage/mg of tissue.

Q: Which “time from the peak until the [Ca2+]i plateau” value [1] does the source give for <EKWAP [SEQ ID NO 1] here?
A: Its value is 20 s.

Q: What about the “change of intracellular [Ca2+]i” value ([1]; 1 μM) of the same compound?
A: Its value is “Increase”.

Q: And the “[Ca2+]i response peak” value ([1]; immediately after addition of the peptide)?
A: Its value is “approximately 350 nM”.

Q: And the “form in which the peptide is excreted in urine” value ([2]; mice injected intraperitoneally)?
A: Its value is “exception”.

Q: And the “Metabolites in the urine” value [2]?
A: The value was “<EKW”.

Q: For CC[C@H](C)[C@H](NC(=O)[C@@H]1CCCN1C(=O)CNC(=O)[C@H](CC(=O)O)NC(=O)[C@@H]1CCC(=O)N1)C(=O)N1CCC[C@H]1C(=O)N1CCC[C@H]1C(=O)O [SEQ ID NO 4, <EDGPIPP] ([pGlu]DGPIPP-OH), which “Metabolites in the urine” value [2] is on record?
A: Its value is “<EDGPIPP”.

Q: Which “Metabolites in the urine” value [2] does the source give for <EWGRPPGPPIPP [SEQ ID NO 14] here?
A: Its value is “<EWGRPPGPPIPP”.

Q: Which “Metabolites in the urine” value ([2]; 0.91 mg/kg) does the source give for CC[C@H](C)[C@H](NC(=O)[C@H](CCC(N)=O)NC(=O)[C@@H]1CCCN1C(=O)[C@H](CCCNC(=N)N)NC(=O)[C@@H]1CCCN1C(=O)[C@H](Cc1c[nH]c2ccccc12)NC(=O)[C@@H]1CCC(=O)N1)C(=O)N1CCC[C@H]1C(=O)N1CCC[C@H]1C(=O)O [SEQ ID NO 5, <EWPRPQIPP] here?
A: The value was “<EWPRPQIP; also recorded: <EWPRP; also recorded: <EWPRPQIPP”.

Q: Which “effect of the inhibitor on AsS activation by peptide SEQ ID NO 8” value [3] does the source give for CC(N)(CC(=O)O)C(=O)O (racemic) [MDLA, α-methyl-DL-aspartic acid, reference compound] here?
A: Its value is “completely blocked; also recorded: completely inhibited”.

Q: With “SEQ ID NO 8/^125I: synthetic oligopeptide SEQ ID NO 8 labeled with ^125I ([pGlu]NWPHPQIPP; also: 125I label, place not given here)” as the compound, how does the “kidney concentration relative to other tissues per gram of tissue” value [4] read?
A: Its value is “higher than 10 fold”.

Q: And the “share of the concentration of the injected dose remaining in the kidneys” value ([4]; kidney)?
A: The value was “approximately 15%”.

Q: What about the “time the radioactivity remains in the kidneys” value ([4]; kidney) of the same compound?
A: Its value is over 3 h.

— patent publication US20100035822A1, “PROLINE-RICH PEPTIDES, PHARMACEUTICAL COMPOSITION, USE OF ONE OR MORE PEPTIDES AND METHOD OF TREATMENT” (priority 2006, published 2010)
